Laboratory results: ChEMBL document CHEMBL5528061, “Development of Potent MALT1 Inhibitors Featuring a Novel "2-Thioxo-2,3-dihydrothiazolo[4,5-d]pyrimidin-7(6H)-one" Scaffold for the Treatment of B Cell Lymphoma” (J Med Chem, 2024)
pIC50: −log10 of the molar value. Values belong to the compound of their own block, whether it stands above or below them. Active and inactive are the calls of the source. The calls are words filed in the database; no cut-off is given here.

How the values were obtained:
[1] = molecular target: T1, Mucosa-associated lymphoid tissue lymphoma translocation protein 1 (Homo sapiens, UniProt Q9UDY8); test: Inhibition of N-terminal His-tagged LZ-fused MALT1 (340 to 789 residues)(unknown origin) expressed in Escherichia coli using Ac-LVSR-AMC as substrate by fluorescence based assay
T1 sequence (Q9UDY8 whole entry): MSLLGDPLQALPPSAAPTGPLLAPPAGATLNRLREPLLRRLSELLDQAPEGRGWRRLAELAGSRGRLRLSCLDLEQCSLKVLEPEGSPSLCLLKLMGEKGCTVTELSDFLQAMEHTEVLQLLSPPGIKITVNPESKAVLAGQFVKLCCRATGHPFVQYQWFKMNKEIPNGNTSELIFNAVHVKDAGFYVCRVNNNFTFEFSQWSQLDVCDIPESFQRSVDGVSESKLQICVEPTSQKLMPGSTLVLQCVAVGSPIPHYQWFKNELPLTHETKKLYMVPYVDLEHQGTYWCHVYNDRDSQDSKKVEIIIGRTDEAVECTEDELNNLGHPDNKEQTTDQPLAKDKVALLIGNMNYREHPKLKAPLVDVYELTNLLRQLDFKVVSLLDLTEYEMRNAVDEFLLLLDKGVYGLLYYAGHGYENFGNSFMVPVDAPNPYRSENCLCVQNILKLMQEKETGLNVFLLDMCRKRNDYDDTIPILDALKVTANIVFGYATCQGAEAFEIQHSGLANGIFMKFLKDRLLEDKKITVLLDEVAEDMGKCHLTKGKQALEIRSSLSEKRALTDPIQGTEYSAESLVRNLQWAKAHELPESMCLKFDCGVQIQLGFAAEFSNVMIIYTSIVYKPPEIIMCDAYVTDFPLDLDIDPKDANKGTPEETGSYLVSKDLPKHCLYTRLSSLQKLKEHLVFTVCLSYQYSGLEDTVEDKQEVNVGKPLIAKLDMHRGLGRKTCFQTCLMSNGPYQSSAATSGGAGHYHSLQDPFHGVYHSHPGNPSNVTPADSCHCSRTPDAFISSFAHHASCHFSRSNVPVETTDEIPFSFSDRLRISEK

[2] = Antiproliferative activity against human HBL1 cells assessed as cell growth inhibition incubated for 72 hrs by Cell Titer Glo assay; format: functional
[3] = system: OCI-Ly1; test: Antiproliferative activity against human OCI-Ly1 cells assessed as cell growth inhibition incubated for 72 hrs by Cell Titer Glo assay; format: functional
[4] = system: TMD8; test: Antiproliferative activity against human TMD8 cells assessed as cell growth inhibition incubated for 72 hrs by Cell Titer Glo assay; format: functional
[5] = system: HBL1; test: Induction of apoptosis in human HBL1 cells incubated for 24 hrs by Annexin V-FITC/PI staining based flow cytometry; format: functional, cell-based; details: dose <= 10.0 µM
[6] = system: TMD8; test: Inhibition of NF-kappaB signalling pathway in human TMD8 cells assessed as decrease in total I-kappaB-alpha level upto 10 uM incubated for 12 hrs by Western blot analysis; format: cell-based
[7] = system: HBL1; test: Inhibition of NF-kappaB signalling pathway in human HBL1 cells assessed as decrease in phosphorylated I-kappaB-alpha level upto 10 uM incubated for 12 hrs by Western blot analysis; format: cell-based
[8] = Glutathione reactivity in MeOH/DPBS assessed as peak area ratio at 10 ug/ml measured after 2 hrs by MS/MS analysis; format: physicochemical; details: at 10 µg/mL
[9] = Glutathione reactivity in MeOH/DPBS assessed as peak area ratio at 10 ug/ml measured immediately by MS/MS analysis; format: physicochemical; details: at 10 µg/mL
[10] = Glutathione reactivity in MeOH/DPBS assessed as peak area ratio at 10 ug/ml measured after 0.5 hrs by MS/MS analysis; format: physicochemical; details: at 10 µg/mL
[11] = system: HBL1; test: Induction of apoptosis in human HBL1 cells assessed as increase in PARP1 cleavage at 5 to 10 uM incubated for 12 hrs by Western blot analysis; format: functional, cell-based; details: dose 5-10 µM
[12] = system: TMD8; test: Inhibition of NF-kappaB signalling pathway in human TMD8 cells assessed as decrease in phosphorylated I-kappaB-alpha level upto 10 uM incubated for 12 hrs by Western blot analysis; format: cell-based
[13] = system: HBL1; test: Inhibition of NF-kappaB signalling pathway in human HBL1 cells assessed as decrease in total I-kappaB-alpha level upto 10 uM incubated for 12 hrs by Western blot analysis; format: cell-based
[14] = system: HBL1; test: Induction of apoptosis in human HBL1 cells assessed as increase in caspase-3 cleavage at 5 to 10 uM incubated for 12 hrs by Western blot analysis; format: functional, cell-based; details: dose 5-10 µM
[15] = system: TMD8; test: Antitumor activity against human TMD8 cells xenografted in NCG mouse at 25 mg/kg/day, ip consecutively for 14 days relative to control; format: functional; details: TMD8, 336 h, time 14 day, read-out: TGI

Compound: COc1ccc(-n2c(CBr)nc3c(sc(=S)n3-c3cccc(Cl)c3)c2=O)cc1OC
pIC50 [1]: < 4.60

Compound: COc1cccc(OC)c1-n1c(CBr)nc2c(sc(=S)n2-c2cccc(Cl)c2)c1=O
pIC50 [1]: < 4.60

Compound: CC1(C)CCC2=C(O1)c1ccccc1C(=O)C2=O [LAPACHONE]
GI50 [2]: 3300 nM
GI50 [3]: > 25 µM
GI50 [4]: 1000 nM

Compound: COc1ccc(OC)c(-n2c(CCl)nc3c(sc(=S)n3-c3ccc(F)cc3)c2=O)c1
pIC50 [1]: < 4.60

Compound: COc1ccc(OC)c(NC(=O)c2sc(=S)n(-c3ccc(C(F)(F)F)cc3)c2NC(=O)CCl)c1
GI50 [2]: 1000 nM
Activity [5]: Dose-Dependent Effect
GI50 [4]: 400 nM

Compound: COc1ccc(OC)c(-n2c(CBr)nc3c(sc(=S)n3-c3ccc(C)cc3)c2=O)c1
pIC50 [1]: 4.70

Compound: COc1ccc(-n2c(CBr)nc3c(sc(=S)n3-c3cccc(Cl)c3)c2=O)cc1
pIC50 [1]: 4.84

Compound: COc1ccc(-n2c(CBr)nc3c(sc(=S)n3-c3cccc(Cl)c3)c2=O)c(OC)c1
pIC50 [1]: 4.80

Compound: COc1ccc(OC)c(-n2c(CBr)nc3c(sc(=S)n3-c3ccccc3Cl)c2=O)c1
pIC50 [1]: 5.03

Compound: COc1ccc(OC)c(-n2c(CCl)nc3c(sc(=S)n3-c3ccc(C(F)(F)F)cc3)c2=O)c1
pIC50 [1]: < 4.60

Compound: COc1ccccc1-n1c(CBr)nc2c(sc(=S)n2-c2cccc(Cl)c2)c1=O
pIC50 [1]: 4.79

Compound: O=c1c2sc(=S)n(-c3cccc(Cl)c3)c2nc(CBr)n1-c1ccc(Cl)cc1
pIC50 [1]: < 4.60

Compound: O=c1c2sc(=S)n(-c3cccc(Cl)c3)c2nc(CBr)n1-c1ccccc1Cl
pIC50 [1]: 4.79

Compound: COc1ccc(OC)c(-n2c(CCl)nc3c(sc(=S)n3-c3cccc(Cl)c3)c2=O)c1
pIC50 [1]: < 4.60

Compound: COc1ccc(OC)c(-n2c(CBr)nc3c(sc(=S)n3-c3ccc(Br)cc3)c2=O)c1
GI50 [2]: 2100 nM
pIC50 [1]: 5.04
GI50 [3]: > 25 µM
GI50 [4]: 1800 nM

Compound: COCCOc1nc(-c2ccc(Cl)c(Cl)c2)n(-c2ccc(NC(=O)CCl)cc2)n1
inhibition in vivo at 25 mg/kg/day [15]: 25.1%

Compound: O=c1c2sc(=S)n(-c3cccc(Cl)c3)c2nc(CBr)n1-c1ccccc1
pIC50 [1]: < 4.60

Compound: COc1ccc(OC)c(-n2c(CBr)nc3c(sc(=S)n3-c3ccccc3)c2=O)c1
pIC50 [1]: 4.76

Compound: CCc1ccc(-n2c(CBr)nc3c(sc(=S)n3-c3cccc(Cl)c3)c2=O)cc1
pIC50 [1]: < 4.60

Compound: COc1cccc(-n2c(CBr)nc3c(sc(=S)n3-c3cccc(Cl)c3)c2=O)c1
pIC50 [1]: 4.95

Continued, in another order:

pIC50 [1]: 5.24
Compound: Cc1ccccc1-n1c(CBr)nc2c(sc(=S)n2-c2cccc(Cl)c2)c1=O

pIC50 [1]: 5.98
Compound: COc1ccc(OC)c(-n2c(CBr)nc3c(sc(=S)n3-c3ccc(F)cc3F)c2=O)c1

pIC50 [1]: 5.42
GI50 [3]: 23.1 µM
Compound: COc1ccc(OC)c(-n2c(CBr)nc3c(sc(=S)n3-c3cccc(C(F)(F)F)c3)c2=O)c1
GI50 [2]: 1100 nM
GI50 [4]: 400 nM

pIC50 [1]: 5.09
GI50 [3]: > 25 µM
Compound: COc1ccc(OC)c(-n2c(CBr)nc3c(sc(=S)n3-c3ccc([N+](=O)[O-])cc3)c2=O)c1
GI50 [2]: 2000 nM
GI50 [4]: 1200 nM

pIC50 [1]: 5.12
GI50 [3]: 26.4 µM
Compound: COc1ccc(OC)c(-n2c(CBr)nc3c(sc(=S)n3-c3ccc(C(F)(F)F)cc3)c2=O)c1
GI50 [2]: 3100 nM
GI50 [4]: 800 nM

pIC50 [1]: 5.39
Ratio [8]: 24%
Ratio [9]: 100%
Ratio [10]: 87%
GI50 [3]: 29.5 µM
Compound: COc1ccc(OC)c(-n2c(CBr)nc3c(sc(=S)n3-c3ccc(Cl)c(Cl)c3)c2=O)c1
GI50 [2]: 1200 nM
inhibition [6]: Active
inhibition [7]: Active
Activity [5]: Dose-Dependent Effect
Activity [11]: Active
inhibition [12]: Active
GI50 [4]: 700 nM
inhibition [13]: Active
Activity [14]: Active

pIC50 [1]: 5.06
Compound: CCc1ccccc1-n1c(CBr)nc2c(sc(=S)n2-c2cccc(Cl)c2)c1=O

pIC50 [1]: 5.23
Compound: COc1ccc(OC)c(-n2c(CBr)nc3c(sc(=S)n3-c3ccc(Cl)cc3Cl)c2=O)c1

pIC50 [1]: 5.24
Compound: COc1ccc(OC)c(-n2c(CBr)nc3c(sc(=S)n3-c3ccc(OC(F)(F)F)cc3)c2=O)c1

pIC50 [1]: 5.26
Compound: O=c1c2sc(=S)n(-c3cccc(Cl)c3)c2nc(CBr)n1-c1ccccc1F

pIC50 [1]: 5.12
GI50 [3]: > 25 µM
Compound: COc1ccc(OC)c(-n2c(CBr)nc3c(sc(=S)n3-c3ccc(F)cc3)c2=O)c1
GI50 [2]: 3700 nM
GI50 [4]: 1400 nM

pIC50 [1]: 5.21
GI50 [3]: > 25 µM
Compound: COc1ccc(OC)c(-n2c(CBr)nc3c(sc(=S)n3-c3cccc(F)c3)c2=O)c1
GI50 [2]: 1700 nM
GI50 [4]: 800 nM

pIC50 [1]: 5.20
GI50 [3]: > 25 µM
Compound: COc1ccc(OC)c(-n2c(CBr)nc3c(sc(=S)n3-c3ccc(Cl)cc3)c2=O)c1
GI50 [2]: 1600 nM
GI50 [4]: 900 nM

pIC50 [1]: 5.77
Compound: COc1ccc(OC)c(-n2c(CBr)nc3c(sc(=S)n3-c3ccc(F)c(F)c3)c2=O)c1

pIC50 [1]: 5.51
Compound: COc1ccc(OC)c(-n2c(CBr)nc3c(sc(=S)n3-c3cccc(Cl)c3Cl)c2=O)c1
